Results taken from PubChem BioAssay AID330 (DTP/NCI, 2004).
Values joined by “and” are separate entries in the source; they are usually repeats but may differ in a detail not shown here. Equal entries are not always repeated. Toxic doses and inconclusive results are not listed. How the source made its calls: active means survival T/C of 150% or more; inactive means T/C below 125% in these data. Peptide text beside a SMILES is read from it. * marks the point of attachment. Cbz = O=C(OCc1ccccc1)*

System: P388 leukemia ip, CD2F1 mice, survival T/C
Experiment: NCI In Vivo Anticancer Drug Screen. Data for tumor model P388 Leukemia (intraperitoneal) in CD2F1 (CDF1) mice
Conditions: endpoint: median survival time, higher = longer survival
Procedure, shortened: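 Mice carrying the transplanted tumor received test compound or vehicle. Survival was recorded in each group, and the value is the treated-group measurement divided by that of the vehicle-treated control group.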

[1] = dose: 60.0 mg/kg/injection, schedule: Q01DX005 (ip), vehicle: Klucel (hydroxypropylcellulose) (HPC)
[2] = dose: 120.0 mg/kg/injection, schedule: Q01DX005 (ip), vehicle: Klucel (hydroxypropylcellulose) (HPC)
[3] = dose: 240.0 mg/kg/injection, schedule: Q01DX005 (ip), vehicle: Klucel (hydroxypropylcellulose) (HPC)
[4] = dose: 12.5 mg/kg/injection, schedule: Q01DX009 (ip), vehicle: saline
[5] = dose: 25.0 mg/kg/injection, schedule: Q01DX009 (ip), vehicle: saline
[6] = dose: 50.0 mg/kg/injection, schedule: Q01DX005 (ip), vehicle: saline with Tween-80
[7] = dose: 100.0 mg/kg/injection, schedule: Q01DX005 (ip), vehicle: saline with Tween-80
[8] = dose: 200.0 mg/kg/injection, schedule: Q01DX005 (ip), vehicle: saline with Tween-80
[9] = dose: 50.0 mg/kg/injection, schedule: Q01DX005 (ip), vehicle: Klucel (hydroxypropylcellulose) (HPC)
[10] = dose: 100.0 mg/kg/injection, schedule: Q01DX005 (ip), vehicle: Klucel (hydroxypropylcellulose) (HPC)
[11] = dose: 200.0 mg/kg/injection, schedule: Q01DX005 (ip), vehicle: Klucel (hydroxypropylcellulose) (HPC)
[12] = dose: 50.0 mg/kg/injection, schedule: Q01DX009 (ip), vehicle: saline
[13] = dose: 120.0 mg/kg/injection, schedule: Q01DX005 (ip), vehicle: saline with Tween-80
[14] = dose: 240.0 mg/kg/injection, schedule: Q01DX005 (ip), vehicle: saline with Tween-80
[15] = dose: 100.0 mg/kg/injection, schedule: Q01DX009 (ip), vehicle: saline with Tween-80
[16] = dose: 200.0 mg/kg/injection, schedule: Q01DX009 (ip), vehicle: saline with Tween-80
[17] = dose: 50.0 mg/kg/injection, schedule: Q01DX009 (ip), vehicle: saline with Tween-80

Measured: T/C

Clc1ccc(Nc2c3ccccc3nc3c2cnn3-c2ccccc2)cc1
inactive: [1] 89 % of control | [2] 99 % of control and 93 % of control | [3] 100 % of control and 90 % of control

O=C(c1ccccc1)c1no[n+]([O-])c1C(=O)c1ccccc1
inactive: dose: 3.12 mg/kg/injection, schedule: Q01DX009 (ip), vehicle: Klucel (hydroxypropylcellulose) (HPC) 102 % of control and 114 % of control and 116 % of control | dose: 6.25 mg/kg/injection, schedule: Q01DX009 (ip), vehicle: Klucel (hydroxypropylcellulose) (HPC) 100 % of control and 117 % of control | dose: 12.5 mg/kg/injection, schedule: Q01DX009 (ip), vehicle: Klucel (hydroxypropylcellulose) (HPC) 105 % of control and 123 % of control

CCCCC(C)(CN(C)C)C(=O)/C=C/c1ccc(Cl)c(Cl)c1 (stereo not given)
inactive: dose: 3.13 mg/kg/injection, schedule: Q01DX009 (ip), vehicle: saline 111 % of control and 97 % of control | dose: 6.25 mg/kg/injection, schedule: Q01DX009 (ip), vehicle: saline 102 % of control and 108 % of control | [4] 109 % of control | [5] 106 % of control and 109 % of control

Cc1[nH]c2ccc(N(C)C)cc2c(=O)c1CN1CCOCC1
inactive: dose: 50.0 mg/kg/injection, schedule: Q01DX009 (ip), vehicle: Klucel (hydroxypropylcellulose) (HPC) 107 % of control | dose: 100.0 mg/kg/injection, schedule: Q01DX009 (ip), vehicle: Klucel (hydroxypropylcellulose) (HPC) 115 % of control | dose: 200.0 mg/kg/injection, schedule: Q01DX009 (ip), vehicle: Klucel (hydroxypropylcellulose) (HPC) 107 % of control

COc1ccc2c(c1N)CC[C@@H]1C2CC[C@]2(C)C(O)CCC12 (stereo not given in full)
inactive: [6] 104 % of control | [7] 96 % of control | [8] 91 % of control

O=C(C#Cc1ccccc1)C1=Cc2ccccc2OC1
inactive: [9] 94 % of control | [10] 95 % of control | [11] 96 % of control

Cc1ccc(C)c(C2(c3cc(C)ccc3C)CCCCCC2=O)c1
inactive: [10] 88 % of control

NC1=C(C(=O)c2ccccc2)CCCC1
inactive: [12] 106 % of control | dose: 100.0 mg/kg/injection, schedule: Q01DX009 (ip), vehicle: saline 97 % of control | dose: 200.0 mg/kg/injection, schedule: Q01DX009 (ip), vehicle: saline 97 % of control

CCOC(=O)C1=C(N)N(S(=O)(=O)c2ccc(C)cc2)CCC(C(=O)OC)=C1
inactive: [13] 119 % of control | [14] 108 % of control

CCOC(=O)N(CCF)N=O
inactive: dose: 3.12 mg/kg/injection, schedule: Q01DX001 (ip), vehicle: saline with Tween-80 108 % of control and 96 % of control | dose: 6.25 mg/kg/injection, schedule: Q01DX001 (ip), vehicle: saline with Tween-80 108 % of control and 114 % of control | dose: 12.5 mg/kg/injection, schedule: Q01DX001 (ip), vehicle: saline with Tween-80 124 % of control | dose: 25.0 mg/kg/injection, schedule: Q01DX001 (ip), vehicle: saline with Tween-80 117 % of control

COC(=O)C(Cl)c1ccccc1 (stereo not given)
inactive: [15] 104 % of control | [16] 113 % of control | dose: 400.0 mg/kg/injection, schedule: Q01DX009 (ip), vehicle: saline with Tween-80 100 % of control

O=C(NC(Cc1ccccc1)C(=O)NC(CO)C(=O)O)OCc1ccccc1 (stereo not drawn) (Cbz-Phe-Ser-OH; configuration not given here)
inactive: [6] 100 % of control | [7] 100 % of control | [8] 98 % of control

CCC(C)C1NC(=O)C2CCCN2C(=O)C(CC2CO2)OC(=O)CCNC(=O)C(C)N(C)C(=O)C(C(C)C)N(C)C1=O (stereo not given)
inactive: dose: 1.56 mg/kg/injection, schedule: Q01DX005 (ip), vehicle: water 100 % of control | dose: 3.12 mg/kg/injection, schedule: Q01DX005 (ip), vehicle: water 109 % of control

Nc1nc(-c2c[nH]c(=O)[nH]c2=O)cs1
inactive: dose: 12.5 mg/kg/injection, schedule: Q01DX009 (ip), vehicle: saline with Tween-80 107 % of control | dose: 25.0 mg/kg/injection, schedule: Q01DX009 (ip), vehicle: saline with Tween-80 107 % of control | [17] 104 % of control

COCC(O)Cn1ccnc1[N+](=O)[O-] (stereo not given)
inactive: dose: 1.0 mg/kg/injection, schedule: Q01DX009 (ip), vehicle: saline + alcohol 100 % of control | dose: 1.0 mg/kg/injection, schedule: Q01DX009 (ip), vehicle: saline 104 % of control | dose: 2.0 mg/kg/injection, schedule: Q01DX009 (ip), vehicle: saline + alcohol 98 % of control | dose: 2.0 mg/kg/injection, schedule: Q01DX009 (ip), vehicle: saline 109 % of control | dose: 4.0 mg/kg/injection, schedule: Q01DX009 (ip), vehicle: saline 120 % of control | dose: 8.0 mg/kg/injection, schedule: Q01DX009 (ip), vehicle: saline 111 % of control | dose: 16.0 mg/kg/injection, schedule: Q01DX009 (ip), vehicle: saline 108 % of control | dose: 32.0 mg/kg/injection, schedule: Q01DX009 (ip), vehicle: saline 112 % of control | dose: 64.0 mg/kg/injection, schedule: Q01DX009 (ip), vehicle: saline + alcohol 124 % of control | dose: 64.0 mg/kg/injection, schedule: Q01DX009 (ip), vehicle: saline 102 % of control | dose: 128.0 mg/kg/injection, schedule: Q01DX009 (ip), vehicle: saline + alcohol 98 % of control | dose: 128.0 mg/kg/injection, schedule: Q01DX009 (ip), vehicle: saline 111 % of control | dose: 250.0 mg/kg/injection, schedule: Q01DX001 (ip), vehicle: saline + alcohol 97 % of control | dose: 256.0 mg/kg/injection, schedule: Q01DX009 (ip), vehicle: saline + alcohol 91 % of control | dose: 256.0 mg/kg/injection, schedule: Q01DX009 (ip), vehicle: saline 111 % of control | dose: 500.0 mg/kg/injection, schedule: Q01DX001 (ip), vehicle: saline + alcohol 100 % of control | dose: 512.0 mg/kg/injection, schedule: Q01DX009 (ip), vehicle: saline 112 % of control | dose: 600.0 mg/kg/injection, schedule: Q01DX005 (ip), vehicle: saline 114 % of control | dose: 1000.0 mg/kg/injection, schedule: Q01DX001 (ip), vehicle: saline + alcohol 102 % of control | dose: 1000.0 mg/kg/injection, schedule: Q01DX005 (ip), vehicle: saline 105 % of control | dose: 2000.0 mg/kg/injection, schedule: Q01DX001 (ip), vehicle: saline + alcohol 66 % of control

CC1CCC(C(C)C)C(NC(=O)C[n+]2cccc(C(N)=O)c2)C1 (stereo not given)
inactive: dose: 12.5 mg/kg/injection, schedule: Q04DX002 (ip), vehicle: saline 99 % of control | dose: 25.0 mg/kg/injection, schedule: Q04DX002 (ip), vehicle: saline 105 % of control | dose: 50.0 mg/kg/injection, schedule: Q04DX002 (ip), vehicle: saline 101 % of control

O=C(c1ccccc1)N1C=CN(C(=O)c2ccccc2)C(c2ccccc2)C1c1ccccc1 (stereo not given)
inactive: [1] 88 % of control | [2] 90 % of control

O=C(/C=C/c1c[nH]c2ccccc12)c1ccccc1O
inactive: dose: 60.0 mg/kg/injection, schedule: Q01DX005 (ip), vehicle: saline with Tween-80 98 % of control | [13] 90 % of control | [14] 98 % of control

CCOC(=O)c1ccc(NC(CCN2CCOCC2)=NC(C)(C)C)cc1
inactive: [17] 111 % of control | [15] 106 % of control | [16] 105 % of control

CCCCN(CCCC)CC(CN(CC)CC)N(CC)C(=O)Nc1ccccc1 (stereo not given)
inactive: dose: 12.5 mg/kg/injection, schedule: Q01DX005 (ip), vehicle: saline 94 % of control | dose: 25.0 mg/kg/injection, schedule: Q01DX005 (ip), vehicle: saline 93 % of control | dose: 50.0 mg/kg/injection, schedule: Q01DX005 (ip), vehicle: saline 102 % of control and 94 % of control

Cn1cnc2c1c(=O)n(N)c(=O)n2C
inactive: [1] 102 % of control | [2] 98 % of control | [3] 92 % of control

CC(=O)N=c1c(Br)cc(Br)c(C)n1O
inactive: [9] 93 % of control | [10] 99 % of control | [11] 102 % of control

CC(=O)Nc1ccc(S(=O)(=O)CC(N)=O)cc1
inactive: [4] 105 % of control | [5] 104 % of control | [12] 107 % of control | dose: 50.0 mg/kg/injection, schedule: Q01DX009 (ip), vehicle: suspension in saline 97 % of control
